Read-outs that look alike come from different tables or passages of the source.
Assays:
[1] = Wistar rats, literature (Ostrenko et al.); cited from earlier work
[2] = test system: damaged neurocytes of the pyramidal layer of the forebrain cortex; test: Morphometric histological analysis of forebrain cortex neurocytes, prophylaxis series; format: in vivo, Wistar rats; conditions: 5 mg/kg, prophylactic application; placebo group 34.8%
Protocol: (§1) Creating a model of alcohol dependence.
(§2) Preparation dosage and application. […] Each group contained 21 animals.
Histological analysis of the nervous tissue. The brain after craniotomy was wholly removed and fixed in a 10% solution of neutral formalin, in 24 hours a zone of precentral gyrus of the forebrain was exposed by frontal incisions. Preparation of nerve tissue specimens was performed according to a standard procedure (dehydration in ethyl alcohol, xylene) with subsequent fabrication of paraffin blocks. Histological sections of 6 μm thick made on a sliding Microm microtome were stained with hematoxylene and eosin. Section duplicates were Nissl-stained with a reagent kit (Biovitrum Co.) and impregnated with silver. Histological sections were morphometrically examined using BioVision image analyzer (Austria) for counting damaged neurocytes of the pyramidal layer of the forebrain cortex in 10 various fields of vision with subsequent statistical processing of the results. Microphotographs were obtained with the help of the research Micros microscope and DCM 900 digital ocular camera.

[3] = test system: model of chronic alcohol intoxication; conditions: after 7 days, treatment series
Protocol: (§3) Materials and Methods. White Wistar male rats weighing 200-250 g (n=168) were used as a model object. The investigation was approved by ethical committee of Federal State Budgetary Educational Institution of Higher Professional Education “Ivanovo State Medical Academy”, the Ministry of Health of the Russian Federation” on Mar. 15, 2016; all procedures and experiments on rats were conducted in compliance with the international rules of treating animals used for scientific purposes. Animals were housed in equal rooms in cages of 7 rats in each at 19-21° C. Animals were given 40-50 g of a mixed fodder per animal every day.
as §1, §2
(§4) Neurological testing. A general assessment of somatic and neurological status of animals was performed in all examined groups.
The time spent in the open and closed arms and in the maze center, duration of grooming in the closed arm, a number of grooming episodes in the closed arm were registered during the elevated plus maze test (EPMT). The tested object was placed in the center of EPM with its nose towards the open arm. The time of testing the animals in the EPM amounted to 5 min. The apparatus used in the test consisted of two arms with an open area at the site of their crossing. One of the maze arms had closed compartments. The maze was installed at a height of 1 m from the floor. The time spent in the open and closed arm, grooming frequency, and rearing frequency were registered.

[4] = test system: model of chronic alcohol intoxication; conditions: treatment series
Protocol: as §3, §1, §2, §4
(§5) In the open field test (OFT), vertical activity, horizontal activity, frequency of dipping into the holes (a hole exploratory test or “burrow reflex”), grooming frequency, and frequency of central zone entries were registered. In OFT, an animal was placed in one and the same square located near the wall. An exposure time for each animal in the model was 5 min. A round OF represented an arena 1 m in diameter and a wall of 0.4 m height with the floor divided into sectors. Three zones were marked in the open field: central, intermediate (6 sectors), peripheral (12 sectors). Two 60 W lamps were located at a height of 1.5 m from the chamber floor over the central field segments. Horizontal activity in the central and peripheral zone, vertical activity, grooming frequency, frequency of defecation, burrow reflexes were fixed during the test. The walls and floor were treated with a wet and dry cloth after each animal.

[5] = test system: model of chronic alcohol intoxication; test: Observation of abstinence after alcohol withdrawal, treatment series; conditions: after alcohol solution withdrawal, 5, 10, 30 mg/kg
Protocol: Creating a model of alcohol dependence. The criterion for selecting rats, along with the absence of obvious abnormalities in the state and behavior, was an initial preference for 6% ethyl alcohol over tap water. To determine this preference, a preliminary experiment was conducted during 3 days in the individual cages with a free access to both liquids. Once a selection has been done, 6% ethyl alcohol was offered as the only source of liquid, a week later the concentration of alcohol was increased to 15%. After 2 weeks, alcohol was replaced by tap water.
Preparation dosage and application. The experiment was carried out in two series «prophylaxis» and «treatment» with four groups in each series: (1) dose 30 mg/kg (experimental group 1), (2) dose 10 mg/kg (experimental group 2), (3) dose 5 mg/kg (experimental group 3), (4) placebo group. In the experiments of “prophylaxis” series, the preparation was introduced concurrently with model creation, while in the experiments of “treatment” series it was done after model creation. Each group contained 21 animals. Said preparation was introduced intragastrically via a probe once a day in volume of 0.5 ml per each animal for 14 days.
“Treatment” represents a more rigid model of alcohol intoxication for evaluation of the preparation efficacy.

[6] = test system: model of chronic alcohol intoxication; test: Neurological testing (OFT, EPMT), prophylaxis series; format: in vivo, Wistar rats
Protocol: as §1, §2, §4, §5
The time spent in the open and closed arms and in the maze center, duration of grooming in the closed arm, a number of grooming episodes in the closed arm were registered during the elevated plus maze test (EPMT). […]

[7] = test system: model of chronic alcohol intoxication; conditions: prophylaxis series
From the text: as §1, §2

[8] = 5 mg/kg intragastrically once a day
[9] = 10 mg/kg intragastrically once a day
[10] = 30 mg/kg intragastrically once a day
[11] = 5 mg/kg intragastrically once a day, after 7 days
[12] = 10 mg/kg intragastrically once a day, after 7 days
[13] = 30 mg/kg intragastrically once a day, after 7 days

O=C1O[C@H]([C@@H](O)CO)C([O-])=C1O.[Li+] [lithium ascorbate]
toxicity class [1]: Class 5
amount of the damaged cortex cells [2]: 18.5%
Grooming frequency (EPMT) [3, 8]: 9.1 times
Time spent in the closed arm (EPMT) [3, 8]: 270.67 s
Time spent in the open arm (EPMT) [3, 8]: 27.73 s
Grooming frequency (EPMT) [3, 9]: 6.3 times
Time spent in the closed arm (EPMT) [3, 9]: 265.19 s
Time spent in the open arm (EPMT) [3, 9]: 34.81 s
Vertical activity (EPMT) [3, 9]: 1.5
Grooming frequency (EPMT) [3, 10]: 5.8 times
Time spent in the closed arm (EPMT) [3, 10]: 259.01 s
Time spent in the open arm (EPMT) [3, 10]: 38.26 s
Frequency of dipping into the hole (OFT) [4, 11]: 1.1 times
Grooming frequency (OFT) [4, 11]: 8.9 times
Horizontal locomotor activity central (OFT) [4, 11]: 1.0
Horizontal locomotor activity peripheral (OFT) [4, 11]: 19.3
Number of boluses (OFT) [4, 11]: 15.1 pcs
Frequency of dipping into the hole (OFT) [4, 12]: 1.9 times
Horizontal locomotor activity central (OFT) [4, 12]: 1.8
Number of boluses (OFT) [4, 12]: 12.6 pcs
Vertical locomotor activity (OFT) [4, 12]: 1.4
Frequency of dipping into the hole (OFT) [4, 13]: 2.0 times
Horizontal locomotor activity central (OFT) [4, 13]: 1.9
Number of boluses (OFT) [4, 13]: 12.2 pcs
Vertical locomotor activity (OFT) [4, 13]: 1.6
dose at which adequate efficacy was noted, treatment purposes ([4]; doses 5, 10, 30 mg/kg compared): 5 mg/kg
cramps during abstinence [5]: No cramps were noted
number of aggressive incidents during abstinence [5]: reduced the number of aggressive incidents
dose from which effective prophylaxis of neurological disorders was noted ([6]; introduced with alcohol for 2 weeks): ≥ 5 mg/kg
vertical activity in neurological tests ([6]; various dosages during 2 weeks): increased vertical activity
catecholamine content in the animal blood ([7]; applied together with alcohol): inhibited the increase of catecholamine content
MDA levels in blood serum [7]: decreased MDA levels

— US11219641B2 («NORMOPHARM» LIMITED LIABILITY COMPANY [RU/RU], priority 2017, dated 2022)
